How the values were obtained:
[1] = tested on: rRNA fragments I-IV of Stop-POST5; assay: RNaseH fragment assay, Stop-POST5; type: binding, shrimp (Artemia salina)
Experimental: (§1) RNaseH Fragment Assay. Total RNA was prepared from the ^3H-AzAt photoaffinity labeled ribosome by phenol-chloroform extraction. RNA: DNA duplexes were formed by incubating total RNA (0.2 μM) with an oligonucleotide pair (1 μM of each, sequences shown Table 1), flanking a specific RNA region, in 22.8 μL of water at 95° C. for 2 min, followed by annealing at 50° C. for 30 s and quenching on ice. Six units (1.2 μL) of RNase H (NEB) and 6 μl of 5×RNase H Reaction Buffer were next added to the RNA: DNA duplex and incubated at 37° C. for 1 hour, followed by phenol-chloroform extraction of RNA. The digested RNA was separated on 12% TBE-Urea PAGE gel, and the target band along with the adjacent upper and bottom gels were sliced by a 2 mm gel cutter. The gel slices were crushed and the ^3H labeled rRNA fragment was extracted in water by vigorously shaking at 70° C. for 30 min, or by overnight extraction in elution buffer (0.3M sodium acetate, 0.25% SDS, 1 mM EDTA). The slurry was removed by centrifugation and the eluted ^3H labeled rRNA in the supernatant was quantified. The stoichiometry of AzAt photoincorporation was calculated based on a gel recovery yield of 20±2%, determined using an authentic sample of [^3H]-Gln-tRNA^Gln.
Testing the functional pertinence of AzAt photolabeling of 18S A1195, 28S-A3093, 28S-A2672, and 28S-2669. An RNAse H fragment assay was employed to determine whether the potential functionally significant sites identified by LASER-seq correspond to ataluren binding sites relevant for termination activity. In this assay, oligonucleotide hybridization, RNase H digestion and polyacrylamide gel electrophoresis (PAGE) were used to determine the stoichiometry of [^3H]-AzAt photoincorporation into the three rRNA fragments that together include the four nucleotides of interest: Fragment I, 18S-A1195; Fragment II, 26S-A3093; Fragment III, 26S-A2669 and 26S-A2672 (Table 5). The separate addition of four potential competitors of AzAt binding (eRF1 alone, the stably bound eRF1.eRF3.GDPNP complex, ataluren, and the ataluren-like TRID GJ072) was used to test how these affected such photoincorporation. These experiments, the results of which are summarized in Table 5, were performed at two different AzAt concentrations. eRF1 and eRF1.eRF3.GDPNP effects were measured using 300 μM AzAt, paralleling the LASER-Seq PAL experiments.

[2] = tested on: Small RNAs within Stop-POST5 complex; assay: AzAt photoincorporation into small RNAs (urea-PAGE, RNAse H fragments); type: binding, shrimp (Artemia salina)
Experimental: FIG. 11 illustrates 8% Urea-PAGE resolution of small RNAs.
(§2) Photoaffinity labeling with [^3H]-AzAt. Samples in Buffer 4, typically 20 μL, were incubated in the dark (20 min for Stop-POST5 and 80S-IRES complexes, 2 min for release factors) with various concentrations of [^3H]-AzAt at 37° C., transferred to a UV-transparent cuvette which was covered with parafilm to prevent evaporation, and irradiated in a Rayonet photochemical reactor equipped with 300 nm UV lamps for 5 min at room temperature. This was followed by quenching with 2 mM DTT at 37° C. for 5 min under ambient light. The irradiation time gave complete photolysis of the phenyl azide moiety in AzAt. Photolysis was also complete at 5 min in the presence of 1 mM ataluren, ruling out internal filtering effects.
Stop-POST5 and 80S-IRES complexes. 1 μM solutions of either Stop-POST5 or 80S-S.IRES, determined by A260, were photolabeled by [^3H]-AzAt. The sample was then either directly purified by ultracentrifugation through a sucrose cushion to determine the photoincorporation stoichiometry in the complex, or subjected to phenol/chloroform extraction to determine the photoincorporation stoichiometry in the total RNA. To determine the photoincorporation background arising from incomplete removal of noncovalently bound photolyzed AzAt, AzAt was prephotolysed for 5 min before adding to the complex, followed by the 20 min incubation in dark at 37° C. and subsequent sucrose cushion purification or RNA extraction as described above.
as §1
Small RNAs. AzAt photoincorporation into the 4 small RNAs (CrPV-IRES, 5.8S rRNA, 5S rRNA, and tRNA) contained within POST5 was examined by one-dimensional (1D) urea-PAGE analysis, by RNA-Seq, and by RNAse H fragment assay (FIG. 11).

[3] = molecular target: T1, eRF1.eRF3.GDPNP ternary complex (Saccharomyces cerevisiae, UniProt P12385); assay: [3H]-AzAt photoaffinity labeling of eRF1 within ternary complex; type: binding
T1 construct: made in house; host or cells: E. coli BL21(DE3) CodonPlus
Experimental: as §2
(§3) Photoaffinity labeling of release factors. Solutions containing eRF1 (10 μM), eRF3 (20 μM) and 1 mM GMPPMP were pre-incubated at 37° C. for 2 min to form the ternary complex prior to photolabeling with [^3H]-AzAt. After quenching, reaction mixtures were loaded onto a 4-15% mini protean SDS-PAGE gel for protein separation and isolation. Gel slices containing eRF1 or eRF3, as shown by Coomassie Blue R250 staining, were crushed and the radioactivity was extracted in extraction buffer (50 mM Tris-HCl, 150 mM NaCl, and 0.1 mM EDTA; pH 7.5) by vigorously shaking at 70° C. for 30 min. The data fitting was performed using the software Prism. Labeling results of eRF1 alone and within the eRF1.eRF3.GDPNP complex were fit with a one-site binding model and a two-site binding model, respectively.

[4] = molecular target: T2, eRF1 (Saccharomyces cerevisiae, UniProt P12385); assay: [3H]-AzAt photoaffinity labeling of isolated eRF1; type: binding
T2 construct: made in house; host or cells: E. coli BL21(DE3) CodonPlus
Experimental: as §2, §3

[5] = Stop-POST5, PAL, 30 μM AzAt, alone or plus Ataluren 500 μM / GJ072 150 μM named as label
[6] = PAL, 30 μM AzAt, alone (AzAt) or plus competing ligand named as label (Ataluren 500 μM, GJ072 150 μM)
[7] = PAL, 30 μM AzAt, alone or plus competing ligand named as label
[8] = Stop-POST5, PAL, 300 μM AzAt, alone or plus competing ligand named as label
[9] = Stop-POST5, PRE, 300 μM prephotolysed AzAt
[10] = PAL, 300 μM AzAt, alone or plus competing ligand named as label

T1 sequence (P05453 166-685): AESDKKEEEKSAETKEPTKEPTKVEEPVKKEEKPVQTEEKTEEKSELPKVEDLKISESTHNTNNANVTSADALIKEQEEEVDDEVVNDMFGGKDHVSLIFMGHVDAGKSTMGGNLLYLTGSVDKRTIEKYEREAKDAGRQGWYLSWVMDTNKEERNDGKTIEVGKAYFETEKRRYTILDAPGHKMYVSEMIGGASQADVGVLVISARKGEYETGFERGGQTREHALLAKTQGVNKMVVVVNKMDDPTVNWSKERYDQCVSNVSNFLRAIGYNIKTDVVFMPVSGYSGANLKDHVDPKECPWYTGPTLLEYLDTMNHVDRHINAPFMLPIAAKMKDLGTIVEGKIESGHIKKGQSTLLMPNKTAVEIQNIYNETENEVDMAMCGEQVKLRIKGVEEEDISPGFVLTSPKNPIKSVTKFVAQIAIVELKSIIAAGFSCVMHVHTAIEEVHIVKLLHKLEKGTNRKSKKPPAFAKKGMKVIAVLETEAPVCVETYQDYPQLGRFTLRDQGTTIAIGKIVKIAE
T1 sequence (P12385 whole entry): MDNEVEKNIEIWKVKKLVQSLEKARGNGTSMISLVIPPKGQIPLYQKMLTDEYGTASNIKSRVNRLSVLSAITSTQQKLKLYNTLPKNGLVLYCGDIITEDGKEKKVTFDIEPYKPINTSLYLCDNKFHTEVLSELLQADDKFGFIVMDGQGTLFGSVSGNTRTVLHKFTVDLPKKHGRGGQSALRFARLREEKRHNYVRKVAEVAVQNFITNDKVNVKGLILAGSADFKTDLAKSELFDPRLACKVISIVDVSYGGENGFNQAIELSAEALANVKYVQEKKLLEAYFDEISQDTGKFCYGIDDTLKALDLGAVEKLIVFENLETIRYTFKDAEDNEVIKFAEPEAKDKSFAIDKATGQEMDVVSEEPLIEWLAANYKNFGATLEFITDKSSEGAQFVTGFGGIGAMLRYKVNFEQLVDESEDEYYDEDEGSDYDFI
T2 sequence (P12385 whole entry): as above

O=C(O)c1cccc(-c2noc(-c3ccccc3F)n2)c1 [Ataluren]
effect on AzAt photoincorporation into Fragment IV (26S A1437/A1438) [1]: neither ataluren nor GJ072 reduce labeling at all
effect on AzAt photoincorporation into Fragment I (18S-A1195) ([1]; Stop-POST5): strongly inhibits
effect on AzAt photoincorporation into Fragment II (A3093) ([1]; Stop-POST5): stimulated
effect on AzAt photoincorporation into Fragment III (A2669/A2672) ([1]; Stop-POST5): only weakly inhibited
Photoincorporation yields into 18S A1195/ I: 18S 1151-1206 [1, 5]: 0.06 ± 0.01 mole %
Photoincorporation yields into 26S-A2669:A2672/ III: 26S 2638-2702 [1, 5]: 0.10 ± 0.04 mole %
Photoincorporation yields into 26S-A3093/ II: 26S 3069-3113 [1, 5]: 0.06 ± 0.01 mole %
Photoincorporation yields into RNAse H Fragment IV: 26S 1413-1476 [1, 5]: 0.034 ± 0.006%
Photoincorporation yields into CrPV-IRES nts1-155 [2, 6]: 0.40 ± 0.13 mole %
Photoincorporation yields into 5S rRNA [2, 7]: 0.15 ± 0.01 mole %
Photoincorporation yields into 5.8S rRNA [2, 7]: 0.19 ± 0.01 mole %
Photoincorporation yields into CrPV-IRES All [2, 7]: 0.76 ± 0.05 mole %
Photoincorporation yields into CrPV-IRES nts156-221 [2, 7]: 0.17 ± 0.03 mole %
Photoincorporation yields into CrPV-IRES nts222-278 [2, 7]: 0.07 ± 0.06 mole %
Photoincorporation yields into tRNA^Gln [2, 7]: 0.22 ± 0.03 mole %
effect on AzAt labeling of CrPV-IRES fragments 1-155 and 156-221 ([2]; RNAse H fragment assay): no clearly significant changes
effect on AzAt labeling of small RNAs ([2]; none clearly significant): generally small reductions
inhibition of AzAt photoincorporation into eRF1 within the ternary complex ([3]; compared with isolated eRF1, FIG. 2E): less marked
effect on AzAt photoincorporation into isolated eRF1 ([4]; FIG. 2E): substantially inhibited

[N-]=[N+]=Nc1ccc(-c2nc(-c3cccc(C(=O)O)c3)no2)cc1 [AzAt]
saturating value of photo-incorporation into Fragment II ([1]; FIG. 7B): 0.8%
saturating value of photo-incorporation into Fragment III ([1]; FIG. 7B): 0.8%
Photoincorporation yields into 18S A1195/ I: 18S 1151-1206 [1, 5]: 0.26 ± 0.03 mole %
Photoincorporation yields into 26S-A2669:A2672/ III: 26S 2638-2702 [1, 5]: 0.13 ± 0.04 mole %
Photoincorporation yields into 26S-A3093/ II: 26S 3069-3113 [1, 5]: 0.03 ± 0.01 mole %
Photoincorporation yields into RNAse H Fragment IV: 26S 1413-1476 [1, 5]: 0.020 ± 0.003%
Photoincorporation yields into 26S-A2669:A2672/ III: 26S 2638-2702 [1, 8]: 1.07 ± 0.14 mole %
Photoincorporation yields into 26S-A3093/ II: 26S 3069-3113 [1, 8]: 0.40 ± 0.01 mole %
Photoincorporation yields into RNAse H Fragment IV: 26S 1413-1476 ([1]; Stop-POST5, PAL, 300 μM AzAt, alone or plus competing ligand named as label (eRF1 2 μM, eRF3 4 μM, GDPNP 1 mM)): 0.29 ± 0.03%
Photoincorporation yields into 18S A1195/ I: 18S 1151-1206 ([1]; Stop-POST5, PAL, 300 μM AzAt, alone or plus competing ligand named as label (eRF1 2 μM, eRF3 4 μM, GDPNP)): 1.55 ± 0.20 mole %
Photoincorporation yields into 18S A1195/ I: 18S 1151-1206 [1, 9]: 0.012 ± 0.003 mole %
Photoincorporation yields into 26S-A2669:A2672/ III: 26S 2638-2702 [1, 9]: 0.03 ± 0.02 mole %
Photoincorporation yields into 26S-A3093/ II: 26S 3069-3113 [1, 9]: 0.04 ± 0.01 mole %
KA, photoincorporation into Fragments II and III (PTC) ([1]; fit to eq (1)): 200 ± 40 µM
Kd ([1]; simple hyperbolic binding isotherm, FIG. 7A, read-out: apparent KD, photoincorporation into Fragment I (18S-A1195)): 240 ± 10 µM
Photoincorporation yields into CrPV-IRES nts1-155 [2, 6]: 0.56 ± 0.04 mole %
Photoincorporation yields into 5S rRNA [2, 7]: 0.19 ± 0.01 mole %
Photoincorporation yields into 5.8S rRNA [2, 7]: 0.25 ± 0.01 mole %
Photoincorporation yields into CrPV-IRES All [2, 7]: 0.85 ± 0.14 mole %
Photoincorporation yields into CrPV-IRES nts156-221 [2, 7]: 0.23 ± 0.08 mole %
Photoincorporation yields into CrPV-IRES nts222-278 [2, 7]: 0.06 ± 0.04 mole %
Photoincorporation yields into tRNA^Gln [2, 7]: 0.30 ± 0.04 mole %
Photoincorporation yields into CrPV-IRES nts1-155 ([2]; PAL, 300 μM AzAt, alone (AzAt) or plus competing ligand named as label (eRF1 2 μM, eRF3 4 μM, GDPNP 1 mM)): 7.6 ± 1.5 mole %
Photoincorporation yields into 5S rRNA [2, 10]: 1.62 ± 0.11 mole %
Photoincorporation yields into 5.8S rRNA [2, 10]: 0.89 ± 0.10 mole %
Photoincorporation yields into CrPV-IRES All [2, 10]: 7.3 ± 0.5 mole %
Photoincorporation yields into CrPV-IRES nts156-221 [2, 10]: 3.2 ± 0.8 mole %
Photoincorporation yields into CrPV-IRES nts222-278 [2, 10]: 0.02 ± 0.03 mole %
Photoincorporation yields into tRNA^Gln [2, 10]: 2.3 ± 0.2 mole %
Photoincorporation yields into 5S rRNA ([2]; PRE, 300 μM prephotolysed AzAt): 0.02 ± 0.01 mole %
Photoincorporation yields into 5.8S rRNA ([2]; PRE, 300 μM prephotolysed AzAt): 0.02 ± 0.01 mole %
Photoincorporation yields into CrPV-IRES All ([2]; PRE, 300 μM prephotolysed AzAt): 0.02 ± 0.01 mole %
Photoincorporation yields into CrPV-IRES nts1-155 ([2]; PRE, 300 μM prephotolysed AzAt): 0.02 ± 0.01 mole %
Photoincorporation yields into CrPV-IRES nts156-221 ([2]; PRE, 300 μM prephotolysed AzAt): 0.05 ± 0.04 mole %
Photoincorporation yields into CrPV-IRES nts222-278 ([2]; PRE, 300 μM prephotolysed AzAt): 0.03 ± 0.01 mole %
Photoincorporation yields into tRNA^Gln ([2]; PRE, 300 μM prephotolysed AzAt): 0.41 ± 0.09 mole %
Kd ([3]; two-site model, read-out: Kd, tight site photoincorporation into eRF1 within ternary complex): 90 ± 20 µM
Kd ([4]; hyperbolic saturation curve, read-out: Kd, photoincorporation into isolated eRF1): 110 ± 20 µM

Reference: US20230235374A1, “High Throughput Assays for Detecting Translation Readthrough Inducers” (The Trustees of the University of Pennsylvania, priority 2021, published 2023)
